Experimental findings from ChEMBL document CHEMBL5236632, “Membrane-Active Nonivamide Derivatives as Effective Broad-Spectrum Antimicrobials: Rational Design, Synthesis, and Biological Evaluation” (J Med Chem, 2022) are described below.

The test system of series [1] is Cell membrane. Put plainly: Induction of outer membrane permeability in Escherichia coli ATCC 25922 assessed as increase fluoresence intensity at 4 to 8 times of MIC measured for 60 mins by NPN uptake assay. The class given is subcellular.
Series [2] relates to Staphylococcus aureus. Put plainly: Antibacterial activity against methicillin-resistant Staphylococcus aureus N315 assessed as inhibition of visible growth measured after 18 to 24 hrs by broth dilution method. In kind it is functional. The settings on record: time 18-24 hrs. (In general: Broth dilution looks for growth in wells or tubes with falling amounts of substance.)
Series [3] has as its system Cell membrane. Put plainly: Induction of membrane depolarization in Staphylococcus aureus ATCC 29213 assessed as increase in fluorescence intensity at 4 to 8 times MIC measured for 60 mins by DiSC3(5) dye based fluorescence method. In kind it is subcellular.
Series [4] relates to Staphylococcus aureus. Put plainly: Antibacterial activity against methicillin-resistant Staphylococcus aureus NCTC 10442 assessed as inhibition of visible growth measured after 18 to 24 hrs by broth dilution method. In kind it is functional. The settings on record: time 18-24 hrs.
Series [5] is described as follows: Haemolytic activity in rabbit red blood cells incubated for 60 mins by k multi-mode reader relative to control. The settings on record: for HC50 at 1 h: rabbit red blood cells; for HC5: erythrocyte, 1 h. The class given is toxicity, cell-based, Oryctolagus cuniculus, Erythrocyte.
Series [6] deals with Staphylococcus aureus. Put plainly: Antibacterial activity against Staphylococcus aureus ATCC 29213 assessed as inhibition of visible growth measured after 18 to 24 hrs by broth dilution method. The class given is functional. The settings on record: time 18-24 hrs.
In series [7] the test system is Escherichia coli. Put plainly: Antibacterial activity against Escherichia coli ATCC 25922 assessed as inhibition of visible growth measured after 18 to 24 hrs by broth dilution method. The class given is functional. The settings on record: time 18-24 hrs.
Series [8] deals with Cell membrane. Put plainly: Induction of membrane depolarization in Escherichia coli ATCC 25922 assessed as increase in fluorescence intensity at 4 to 8 times MIC measured for 60 mins by DiSC3(5) dye based fluorescence method. The class given is subcellular.
Series [9] deals with Acinetobacter baumannii. Put plainly: Antibacterial activity against Acinetobacter baumannii ATCC 17978 assessed as inhibition of visible growth measured after 18 to 24 hrs by broth dilution method. The settings on record: time 18-24 hrs. The class given is functional.
Series [10] concerns Klebsiella pneumoniae. Put plainly: Antibacterial activity against Klebsiella pneumoniae ATCC 14581 assessed as inhibition of visible growth measured after 18 to 24 hrs by broth dilution method. The class given is functional. The settings on record: time 18-24 hrs.
The nature of series [11]: Cytotoxicity against mouse NCTC clone 929 cells assessed as cell viability after 24 hrs incubation byCCK-8 assay. In kind it is toxicity, cell-based.
The nature of series [12]: Cytotoxicity against HEK293 cells assessed as cell viability after 24 hrs incubation byCCK-8 assay. In kind it is toxicity, cell-based. The settings on record: human.
Series [13] has as its system Pseudomonas aeruginosa. Put plainly: Antibacterial activity against Pseudomonas aeruginosa ATCC 9027 assessed as inhibition of visible growth measured after 18 to 24 hrs by broth dilution method. In kind it is functional. The settings on record: time 18-24 hrs.
Series [14] can be described thus: Selectivity ratio, HC50 for hemolytic activity in rabbit RBC to MIC for antibacterial activity against Pseudomonas aeruginosa ATCC 9027. In kind it is toxicity.
The subject of series [15] is Acinetobacter baumannii. Put plainly: Antibacterial activity against Acinetobacter baumannii R2889 assessed as inhibition of visible growth measured after 18 to 24 hrs by broth dilution method. The class given is functional. The settings on record: time 18-24 hrs.
Series [16] concerns Klebsiella pneumoniae. Put plainly: Antibacterial activity against Klebsiella pneumoniae ATCC 10031 assessed as inhibition of visible growth measured after 18 to 24 hrs by broth dilution method. The class given is functional. The settings on record: time 18-24 hrs.
Series [17] in a line: Selectivity ratio, HC50 for hemolytic activity in rabbit RBC to MIC for antibacterial activity against methicillin-resistant Staphylococcus aureus N315. The class given is toxicity. The settings on record: rabbit red blood cells.
Series [18] in a line: Selectivity ratio, HC50 for hemolytic activity in rabbit RBC to MIC for antibacterial activity against Staphylococcus aureus ATCC 29213. The settings on record: rabbit red blood cells. The class given is toxicity.
A short description of series [19]: Selectivity ratio, HC50 for hemolytic activity in rabbit RBC to MIC for antibacterial activity against Acinetobacter baumannii R2889. The class given is toxicity. The settings on record: rabbit red blood cells.
A short description of series [20]: Selectivity ratio, HC50 for hemolytic activity in rabbit RBC to MIC for antibacterial activity against Acinetobacter baumannii ATCC 17978. The class given is toxicity. The settings on record: rabbit red blood cells.
Series [21] can be described thus: Selectivity ratio, HC50 for hemolytic activity in rabbit RBC to MIC for antibacterial activity against Klebsiella pneumoniae ATCC 10031. The class given is toxicity. The settings on record: rabbit red blood cells.
Series [22] is described as follows: Selectivity ratio, HC50 for hemolytic activity in rabbit RBC to MIC for antibacterial activity against Klebsiella pneumoniae ATCC 14581. In kind it is toxicity. The settings on record: rabbit red blood cells.
Series [23] is described as follows: Selectivity ratio, HC50 for hemolytic activity in rabbit RBC to MIC for antibacterial activity against methicillin-resistant Staphylococcus aureus NCTC 10442. The settings on record: rabbit red blood cells. In kind it is toxicity.
Series [24] has as its system Escherichia coli. Put plainly: Drug resistance development in Escherichia coli ATCC 25922 assessed as fold change in MIC measured after 20 passages. The class given is functional.
In series [25] the test system is Escherichia coli. Put plainly: Antibacterial activity against Escherichia coli ATCC 25922 assessed as reduction in bacterial load at 8 time of MIC measured with in 30 mins by time kill assay. The class given is functional. The settings on record: 0.5 h.
Series [26] relates to Staphylococcus aureus. Put plainly: Drug resistance development in Staphylococcus aureus ATCC 29213 assessed as fold change in MIC measured after 20 passages. In kind it is functional.
Series [27] concerns Staphylococcus aureus. Put plainly: Antibacterial activity against Staphylococcus aureus ATCC 29213 assessed as reduction in bacterial load at 8 time of MIC measured after 8 hrs by time kill assay. In kind it is functional.

Molecules are shown by their SMILES. Values after ≈ are worked out from the molar mass of the structure shown. Active and inactive are the calls of the source. The calls are words filed in the database; no cut-off is given here. Bounds are passed on as bounds.

A word on the HC50: it is the concentration that lyses half of the red blood cells. `COc1cc(CNC(=O)CCCC/C=C/C(C)C)ccc1O` [CAPSAICIN]: the outcome in series [1], in [3] and in [8] was inactive. Moreover, the MIC in [2], in series [4], in series [6] and in series [7] was over 50 µg/mL in each case. In [5], this compound yielded an HC50 at 1 h of over 200 µg/mL.

By CC50 is commonly meant the concentration giving 50% cytotoxicity. Regarding `CCCCCCCCC(=O)NCc1ccc(O)c(OC)c1` [NONIVAMIDE], the MIC in [9], in series [10], in series [13], in series [2], in series [14] (erythrocytes) and in series [4] was over 50 µg/mL throughout. In addition, the MIC in [15], in series [6], in [7] and in series [16] was over 50 µg/mL in each case. Besides, the CC50 at 24 h is 59 µg/mL (≈ 201 µM) in series [11] and 62 µg/mL (≈ 211 µM) in series [12]. The outcome in series [1], in [3] and in series [8] was inactive. This compound had an HC5 in series [5] of over 200 µg/mL. Moreover, the HC50 at 1 h in [5] is over 200 µg/mL.

Turning to `CC[C@H](C)[C@H](NC(=O)CN)C(=O)NCC(=O)N[C@@H](C)C(=O)N[C@H](C(=O)N[C@@H](CC(C)C)C(=O)N[C@@H](CCCCN)C(=O)N[C@H](C(=O)N[C@@H](CC(C)C)C(=O)N[C@H](C(=O)N[C@H](C(=O)NCC(=O)N[C@@H](CC(C)C)C(=O)N1CCC[C@H]1C(=O)N[C@@H](C)C(=O)N[C@@H](CC(C)C)C(=O)N[C@H](C(=O)N[C@@H](CO)C(=O)N[C@@H](Cc1c[nH]c2ccccc12)C(=O)N[C@H](C(=O)N[C@@H](CCCCN)C(=O)N[C@@H](CCCNC(=N)N)C(=O)N[C@@H](CCCCN)C(=O)N[C@@H](CCCNC(=N)N)C(=O)N[C@@H](CCC(N)=O)C(=O)N[C@@H](CCC(N)=O)C(N)=O)[C@@H](C)CC)[C@@H](C)CC)[C@@H](C)O)[C@@H](C)O)C(C)C)C(C)C` [MELITTIN], the MIC was found to be 3.12 µg/mL (≈ 1.1 µM) in series [9], 6.25 µg/mL (≈ 2.2 µM) in series [10], 3.12 µg/mL (≈ 1.1 µM) in series [15] and 6.25 µg/mL (≈ 2.2 µM) in [16]. Also, the selectivity ratio in series [17] was 6.1; in series [18], 6.1; in [19] it was 3.1; in series [20] it was 3.1; in series [21] it was 3.1; in series [14] (rabbit red blood cells) it was 3.1. The selectivity ratio was found to be 3.1 in series [22] and 6.1 in [23]. In series [5], this compound displayed an HC5 of 5.4 µg/mL.

For `CC1(C)S[C@@H]2[C@H](NC(=O)[C@H](N)c3ccc(O)cc3)C(=O)N2[C@H]1C(=O)O` [AMOXICILLIN], the “fold change (FC)” value in series [24] came to 16. In addition, the Activity in series [25] turned out to be 0.29 log10CFU/ml.

`CCn1cc(C(=O)O)c(=O)c2cc(F)c(N3CCNCC3)cc21` [NORFLOXACIN]: the “fold change (FC)” value in [26] worked out at 128.

Turning to `COc1cc(CNC(=O)CCCC/C=C/C(C)C)ccc1OCCCCCCNC(=N)N`, the selectivity ratio in [17], in series [18] and in series [23] was over 32 throughout. The MIC is 3.12 µg/mL (≈ 7 µM) in [2], 3.12 µg/mL (≈ 7 µM) in series [4], 6.25 µg/mL (≈ 14 µM) in series [6] and over 50 µg/mL in series [7]. The same compound showed an HC50 at 1 h in series [5] of over 200 µg/mL.

As to `CN[C@H](CC(C)C)C(=O)N[C@H]1C(=O)N[C@@H](CC(N)=O)C(=O)N[C@H]2C(=O)N[C@H]3C(=O)N[C@H](C(=O)N[C@H](C(=O)O)c4cc(O)cc(O)c4-c4cc3ccc4O)[C@H](O)c3ccc(c(Cl)c3)Oc3cc2cc(c3O[C@@H]2O[C@H](CO)[C@@H](O)[C@H](O)[C@H]2O[C@H]2C[C@](C)(N)[C@H](O)[C@H](C)O2)Oc2ccc(cc2Cl)[C@H]1O` [VANCOMYCIN], in series [27], the Activity is recorded as 2.44 log10CFU/ml. Besides, the MIC in series [2] was 0.78 µg/mL (≈ 0.538 µM); in [4] it was 0.78 µg/mL (≈ 0.538 µM); in [6] it was 1.56 µg/mL (≈ 1.08 µM); in [7] it was over 50 µg/mL.

Take `CCCCCCCCC(=O)NCc1ccc(OCCCCCCNCCN(CCNC(=N)N)CCNC(=N)N)c(OCCCCCCNCCN(CCNC(=N)N)CCNC(=N)N)c1`: the selectivity ratio in series [17], in series [18] and in series [23] was over 128 in each case. Moreover, the MIC in [2] was found to be 1.56 µg/mL (≈ 1.73 µM); in series [4], 1.56 µg/mL (≈ 1.73 µM); in series [6] it was 1.56 µg/mL (≈ 1.73 µM); in series [7], 12.5 µg/mL (≈ 13.8 µM). The compound further came in with an HC50 at 1 h in [5] of over 200 µg/mL.
